Values quoted from earlier work in patent US6440395B1, “Antiplaque mouth rinse” (priority 1992, dated 2002).

solubility in water (in water at 25° C.)	Compound	solubility in water and alcohol (water and alcohol, stated in words)
	CCCCCCCCCCCCCCCC[n+]1ccccc1 [CPC, cetyl pyridinium chloride]	highly soluble
less than 1 % by weight	Oc1cc(Cl)ccc1Oc1ccc(Cl)cc1Cl [Triclosan, 2,4,4′-trichloro-2′-hydroxydiphenyl ether]	
